Laboratory results published in patent US7521199B2, “Assay to identify estrogen receptor dependent ligands that regulate the hepatic lipase promoter” (Wyeth, priority 2000, dated 2009).
Like-named read-outs stand apart in the source and are kept apart here.

Test system: human hepatic lipase (HL) promoter (−1557 to +43) regulated through human estrogen receptor
Assay: Hepatic lipase promoter luciferase reporter assay in HepG2 cells cotransfected with human estrogen receptor and C/EBPα
Assay type: cell-based
Conditions: for Efficacy (%), Hepatic Lipase Inhibition: relative to 100% effect of 17β-estradiol inhibition of HL activity
Protocol: Cell media was replaced every 2-3 days. Confluent cells were rinsed once with phosphate-buffered saline and 5 mL of a prewarmed solution comprised of about 0.05% trypsin, by volume, and about 0.5 mM ethylenediamine tetraacetic acid was added. Cells were left at room temperature for 5 minutes and cells were then dislodged from the flask by tapping the flask 50 times. Trypsinization was halted by the addition of about 8.5 mL of growth cell culture media. Cells were transferred to a test tube and centrifuged at about 300×g for about 5 minutes. Total cells were counted and resuspended at a concentration of about 1×10^7 cells/200 μL of growth cell culture media.
The mixture was transferred to a 0.2 mL BTX disposable cuvette (P/N 620). Cells were electroporated using a BTX ECM 600 (San Diego, Calif.), at 100 V, […] and 72 Ω. Cells were left a room temperature for about 20 minutes. Approximately 20.5 mL of growth cell culture media was added to the cells. Cells were then seeded at about 200 μL per well of a 96 well plate. Cells were then incubated at about 37° C. for 4 hours.
Media was aspirated and replaced with 200 μL deficient media, which was comprised of Phenol Red Free-DMEM (Gibco BRL) supplemented with 1%, by volume, glutamax; 1%, by volume, penicillin/strepomycin; 1%, by volume, non-essential amino acids; and 10%, by volume, heat inactivated, and charcoal-stripped fetal bovine serum, containing varying concentrations of estrogen test compounds. […]
After estrogen treatment, cells were washed with phosphate-buffered saline and lysed with Cell Culture Lysis Reagent (Promega; Madison, Wis.), 50 μL/well, by shaking the plate at room temperature for about 20 minutes. From each well, 35 μL of cell lysate was transferred to a 96 lumat plate. Luciferase activity was determined by addition of 100 μL luciferase substrate and emitted light was detected with a Dentate Microfluor WHT FB using the Luciferase Assay System (Promega; Madison, Wis.). β-galactosidase activity was determined by adding 10 μL of cell lysate and 100 μL β-galactosidase light emission buffer (Tropix; Bedford Mass.) to a lumat plate. β-galactosidase activity was determined with a Microlumat LB 96P (EG&G Berthold). Emitted light, for each assay, was detected for 10 seconds.
Data were collected and analyzed with the JMP statistical program. Background RLU values were subtracted from both the luciferase and β-gal values. The data were normalized by division of the corrected luciferase values by the corrected β-gal values. […] Mean and standard deviations were determined from at least two separate experiments with an n=4 for each experiment.
Luciferase activity was determined in cell lysates.

[1] = transfected HepG2 cells, 16-24 hours treatment
[2] = transfected HepG2 cells, 16-24 hours treatment, luciferase normalized to β-gal, read-out: IC50 (nM), Hepatic Lipase Inhibition

Compound: C[C@]12CCC3=C(CCc4cc(O)ccc43)[C@@H]1CCC2=O [Δ8,9-dehydroestrone]
- Efficacy (%), Hepatic Lipase Inhibition [1]: 93%
- IC50 [2]: 10 nM

Compound: C[C@]12CC[C@H]3C(=CCc4cc(O)ccc43)[C@@H]1CC[C@H]2O [17α-dihydroequilin]
- Efficacy (%), Hepatic Lipase Inhibition [1]: 89%
- IC50 [2]: 164 nM

Compound: C[C@]12CCC3=C(CCc4cc(O)ccc43)[C@@H]1CC[C@@H]2O [17β-Δ8,9-dehydroestradiol]
- Efficacy (%), Hepatic Lipase Inhibition [1]: 88%
- IC50 [2]: 12 nM

Compound: C[C@]12CCc3c(ccc4cc(O)ccc34)[C@@H]1CCC2=O [equilenin]
- IC50 (Homo sapiens, HepG2, read-out: IC50 (nM), Hepatic Lipase Inhibition): 38 nM
- Efficacy (%), Hepatic Lipase Inhibition [1]: 82%

Compound: C[C@]12CC[C@@H]3c4ccc(O)cc4CC[C@H]3[C@@H]1CC[C@@H]2O [17β-estradiol]
- Efficacy (%), Hepatic Lipase Inhibition [1]: 100%
- IC50 [2]: 88 nM

Compound: C[C@]12CC[C@H]3C(=CCc4cc(O)ccc43)[C@@H]1CC[C@@H]2O [17β-dihydroequilin]
- Efficacy (%), Hepatic Lipase Inhibition [1]: 149%
- IC50 [2]: 469 nM

Compound: C[C@]12CC[C@@H]3c4ccc(O)cc4CC[C@H]3[C@@H]1CC[C@H]2O [17α-estradiol]
- Efficacy (%), Hepatic Lipase Inhibition [1]: 69%
- IC50 [2]: 457 nM
